Source: ChEMBL document CHEMBL1124790, “Angiotensin converting enzyme inhibitors. 10. Aryl sulfonamide substituted N-[1-carboxy-3-phenylpropyl]-L-alanyl-L-proline derivatives as novel antihypertensives” (J Med Chem, 1990)

Legend:
Rattus norvegicus [1] = test: Percent change in K+ in fasted rats at the dose of 100 mg/kg (iv), 0-5 h; assay type: functional
Rattus norvegicus [2] = test: Percent change in urinary volume in fasted rats at the dose of 100 mg/kg (iv), 0-5 h; assay type: functional, Urine
[3] = molecular target: T1, Angiotensin-converting enzyme (Oryctolagus cuniculus) (UniProt P12822); test: Time to inhibit maximum angiotensin I converting enzyme in rabbit lung; assay type: functional, tissue-based
T1 sequence (whole entry): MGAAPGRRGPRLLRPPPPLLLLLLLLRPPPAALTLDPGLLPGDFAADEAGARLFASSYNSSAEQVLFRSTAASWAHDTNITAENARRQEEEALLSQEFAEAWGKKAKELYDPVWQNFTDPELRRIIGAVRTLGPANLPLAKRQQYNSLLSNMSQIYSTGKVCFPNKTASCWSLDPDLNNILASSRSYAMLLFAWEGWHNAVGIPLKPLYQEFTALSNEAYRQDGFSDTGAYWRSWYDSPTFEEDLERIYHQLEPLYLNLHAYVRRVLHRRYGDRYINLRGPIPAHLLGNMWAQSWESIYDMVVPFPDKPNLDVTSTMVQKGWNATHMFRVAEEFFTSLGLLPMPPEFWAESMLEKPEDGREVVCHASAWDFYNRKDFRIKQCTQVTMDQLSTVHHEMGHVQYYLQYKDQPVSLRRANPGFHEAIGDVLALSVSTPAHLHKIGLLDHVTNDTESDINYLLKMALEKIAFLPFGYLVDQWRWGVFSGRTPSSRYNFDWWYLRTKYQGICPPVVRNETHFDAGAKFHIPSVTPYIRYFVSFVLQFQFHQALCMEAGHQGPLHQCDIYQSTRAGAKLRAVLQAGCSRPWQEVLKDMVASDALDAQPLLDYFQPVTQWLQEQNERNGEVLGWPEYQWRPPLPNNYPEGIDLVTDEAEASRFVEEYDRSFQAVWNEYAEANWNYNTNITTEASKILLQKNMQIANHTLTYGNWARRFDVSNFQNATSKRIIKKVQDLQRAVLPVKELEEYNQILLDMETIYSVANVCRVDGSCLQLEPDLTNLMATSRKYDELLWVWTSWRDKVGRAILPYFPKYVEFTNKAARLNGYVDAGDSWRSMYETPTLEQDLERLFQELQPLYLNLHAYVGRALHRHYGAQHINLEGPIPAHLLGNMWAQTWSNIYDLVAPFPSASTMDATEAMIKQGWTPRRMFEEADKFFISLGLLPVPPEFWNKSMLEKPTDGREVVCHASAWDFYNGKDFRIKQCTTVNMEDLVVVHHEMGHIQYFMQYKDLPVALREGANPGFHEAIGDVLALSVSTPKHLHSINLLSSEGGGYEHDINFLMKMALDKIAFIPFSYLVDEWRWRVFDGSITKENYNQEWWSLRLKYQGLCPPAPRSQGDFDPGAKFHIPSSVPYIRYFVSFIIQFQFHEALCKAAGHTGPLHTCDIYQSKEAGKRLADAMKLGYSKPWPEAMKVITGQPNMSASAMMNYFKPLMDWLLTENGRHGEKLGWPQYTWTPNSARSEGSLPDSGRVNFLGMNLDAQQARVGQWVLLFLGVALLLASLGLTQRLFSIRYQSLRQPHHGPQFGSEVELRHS

[4] = molecular target: T2, Angiotensin-converting enzyme (Oryctolagus cuniculus, UniProt P12822); test: In vitro inhibition of angiotensin I converting enzyme (ACE) in rabbit lung; assay type: tissue-based
T2 sequence (P12822 whole entry): T1 sequence (whole entry)

Rattus norvegicus [5] = test: Percent change in Na+ in fasted rats at the dose of 100 mg/kg (iv), 0-5 h; assay type: functional
Rattus norvegicus [6] = test: Percent change in K+ in fasted rats at the dose of 100 mg/kg (iv), 5-24 h; assay type: functional
Rattus norvegicus [7] = test: Percent change in urinary volume in fasted rats at the dose of 100 mg/kg (iv), 5-24 h; assay type: functional, Urine
Rattus norvegicus [8] = test: Percent change in Na+in fasted rats at the dose of 100 mg/kg (iv), 5-24 h; assay type: functional
[9] = molecular target: T1, Angiotensin-converting enzyme (Oryctolagus cuniculus); test: Time during which angiotensin I converting enzyme inhibition is greater than or equa to 30% in rabbit lung; assay type: functional, tissue-based
[10] = molecular target: T1, Angiotensin-converting enzyme (Oryctolagus cuniculus); test: In vivo inhibition of angiotensin I converting enzyme (ACE) in rabbit lung after (iv) administration of a dose of 10(mg/kg); assay type: organism-based

Time to max. inhibition [3]: 0.3 h
IC50 [4]: 6.5 nM
Duration [9]: 3.7 h
inhibition [10]: 76%
Structure (SMILES): C[C@H](N[C@@H](CCc1ccccc1)C(=O)O)C(=O)N1C[C@@H](NS(=O)(=O)c2cc(S(N)(=O)=O)c(N)cc2Cl)C[C@H]1C(=O)O
Change (Rattus norvegicus [1]): 0%
Change (Rattus norvegicus [2]): -49%
Change (Rattus norvegicus [5]): -57%
Change (Rattus norvegicus [6]): 0%
Change (Rattus norvegicus [7]): 60%
Change (Rattus norvegicus [8]): 38%
